Experimental findings from patent US12331029B2, “Orexin 1 receptor antagonists” (NXERA PHARMA UK LIMITED, priority 2018, dated 2025) are described below.

Experiment [1] addresses T1, Human OX2 receptor (Homo sapiens, UniProt O43614).
T1 sequence (O43614 1-444): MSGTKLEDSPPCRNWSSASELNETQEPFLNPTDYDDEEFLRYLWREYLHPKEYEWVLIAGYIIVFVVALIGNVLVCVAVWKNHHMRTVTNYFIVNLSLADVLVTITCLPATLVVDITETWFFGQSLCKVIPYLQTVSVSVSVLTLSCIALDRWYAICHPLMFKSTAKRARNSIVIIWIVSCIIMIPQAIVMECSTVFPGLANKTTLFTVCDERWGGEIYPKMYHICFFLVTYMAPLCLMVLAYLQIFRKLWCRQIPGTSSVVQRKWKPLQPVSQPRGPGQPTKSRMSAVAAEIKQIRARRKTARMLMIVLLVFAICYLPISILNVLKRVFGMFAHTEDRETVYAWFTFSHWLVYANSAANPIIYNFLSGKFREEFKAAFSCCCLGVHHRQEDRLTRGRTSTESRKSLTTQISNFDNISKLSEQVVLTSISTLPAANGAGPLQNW
The experiment in a line: [3H]-radioligand binding assay, human OX2 receptor membranes.
Method: (§2) Human OX1 or OX2 receptor were cloned into Invitrogen's (ThermoFisher Scientific, UK) Bac-to-Bac Baculovirus Expression System. P0 baculovirus was generated by transfecting SF9 cells with bacmid DNA using Cellfectin® II transfection reagent (ThermoFisher Scientific, UK, Catalog number 10362-100). Following P0 generation P1 virus was then generated ready for large scale infection and membrane preparation. SF21 cells were grown in expression medium ESF921 (Expression Systems, USA, catalog number 96-001-01) supplemented with 10% heat-inactivated FBS and 1% Pen/Strep and were infected at a cell density of 2.5×10^6 cells/mL and a multiplicity of infection of 1.0 for both human OX1R and OX2R. Incubation was carried out at over 48 h in a shaking incubator set at 27° C. The cell culture was then centrifuged at 2,500 rcf for 10 min at 4° C. The pellets were resuspended in cold PBS supplemented with Roche's Complete EDTA-free protease inhibitor cocktail tablets (Roche Applied Sciences, catalog number 05056489001), 1 mM PMSF and 1 mM EDTA. The resuspended cell paste was then centrifuged at 3,273 rcf for 12 min at 4° C. The supernatant was discarded and the pellet frozen at −80° C. The cell pellet from a 4 L culture was resuspended in buffer containing 50 mM HEPES pH 7.5, 150 mM NaCl, 8 Roche EDTA-Free protease inhibitor cocktail tablets and 1 mM PMSF. The suspension was left stirring at rt for 1 h and then homogenised for 90 s at 9,500 rpm using a VDI 25 (VWR, USA) homogeniser. The cells were then lysed using a Microfluidiser processor M-110L Pneumatic (Microfluidics, USA) at 60 PSI and membranes collected by ultracentrifugation at 204.7 k×g for 1 h. The supernatant was discarded and the pellet was resuspended and homogenised in 90 s at 9,500 rpm in 50 mL (25 mL for each 2 L culture) of buffer containing 50 mM Hepes pH 7.5, 150 mM NaCl, 3 Roche EDTA-free protease inhibitor cocktail tablets and 1 mM PMSF. The resulting membranes were then stored at −80° C.
(§3) [^3H]-radioligand binding assay. After thawing, membrane homogenates were re-suspended in the binding buffer (8.5 mM HEPES, pH 7.4, 1.3 mM CaCl2, 1.2 mM MgSO4, 118 mM NaCl, 4.7 mM KCl, 4 mM NaHCO3, 1.2 mM KH2PO4, 11 mM glucose) to a final assay concentration of 6.4 μg (OX1) or 1.4 μg (OX2) protein per well. Saturation isotherms were determined by the addition of various concentrations (0-30 nM) of [^3H]-4-(2,6-difluoro-4-methoxybenzyl)-2-(5,6-dimethoxypyridin-3-yl)-2H-1,2,4-benzothiadiazin-3(4H)-one 1,1-dioxide (Christopher et al, MedChemComm., 2015, 6, 947-955) in a total reaction volume of 250 μL for 90 min at rt. At the end of the incubation, membranes were filtered onto a 96-well GF/B filter pre-incubated with 0.5% polyethylenimine, with a Tomtec cell harvester and washed 5 times with 0.5 mL distilled water. Non-specific binding (NSB) was measured in the presence of 3.33 μM [4-(5-chloro-1,3-benzoxazol-2-yl)-7-methyl-1,4-diazepan-1-yl][5-methyl-2-(2H-1,2,3-triazol-2-yl)phenyl]methanone (Wertz et al, Angew. Chem. Int. Ed., 2011, 50, 11511-11515). Radioactivity on the filter was counted (1 min) on a Microbeta radiometric plate counter (Perkin Elmer) after addition of 50 μL of scintillation fluid (LabLogic: Part #SG-BXX-14). […] IC50 values were derived from the inhibition curve and the equilibrium dissociation constant (Ki) values were calculated using the Cheng-Prusoff equation.

The target of experiment [2] is T1, Human OX2 receptor. The experiment in a line: IPone accumulation assay, CHO cells expressing human OX2 receptor. The following applies: antagonism of orexin A (EC80) induced inositol phosphate turnover, read-out: fpKb average OX2. Format: cell-based. How it is done:
(§1) Stable cell lines for the human OX1R and OX2R receptors were generated through the transfection of CHO cells using the transfection reagent Genejuice (Novagen number 70967) and cDNA coding for either the human OX1R or OX2R. Cells were cultured in Sigma Nutrient Mixture F-12 Ham media (catalog number N6658) supplemented with 10% heat-inactivated FBS. Forty-eight hours after transfection, cells were harvested and placed under geneticin selection by culturing in Sigma Nutrient Mixture F-12 Ham media supplemented with 10% heat-inactivated FBS and geneticin (ThermoFisher Catalog number: 10131035). Selection of the final stable clone for each receptor was made on the basis of receptor expression, assay signal to noise and robustness though increasing passage. Selected clones for the human OX1R and OX2R were then frozen down into liquid nitrogen using Cell Freezing Medium-DMSO (Sigma-Aldrich catalog number: C6164).
IPone accumulation assay. A CHO cell line stably expressing either human OX1 or OX2 receptor was used with the IPone HTRF assay kit (CisBio: Part #62IPAPEJ) to measure receptor activation. The assay was optimised to measure the ability (potency; fpKb) of antagonists to reduce agonist (orexin A)-induced inositol phosphate turnover. Briefly, cells were plated onto half area 96-well white walled plates at a density of 12,500 cells/well. Sixteen hours post-plating cell growth media was replaced with antagonist concentration-response curve diluted in stimulation buffer (supplied with the kit). […] After 30 min stimulation in a humidified incubator (37° C.) the assay was terminated by the addition of detection mixture as per manufacturer's instructions. The concentration of compound which reduced orexin-A stimulated turnover of inositol phosphates by 50% (IC50) was calculated by fitting to a four parameter sigmoidal dose response curve. The IC50 values were converted to fpKB values using the orexin A pEC50 value estimated on each plate as well as the challenge concentration interpolated from the orexin A control curve.

Experiment [3] concerns the target T2, Human OX1 receptor (Homo sapiens, UniProt O43613).
T2 sequence (O43613 1-425): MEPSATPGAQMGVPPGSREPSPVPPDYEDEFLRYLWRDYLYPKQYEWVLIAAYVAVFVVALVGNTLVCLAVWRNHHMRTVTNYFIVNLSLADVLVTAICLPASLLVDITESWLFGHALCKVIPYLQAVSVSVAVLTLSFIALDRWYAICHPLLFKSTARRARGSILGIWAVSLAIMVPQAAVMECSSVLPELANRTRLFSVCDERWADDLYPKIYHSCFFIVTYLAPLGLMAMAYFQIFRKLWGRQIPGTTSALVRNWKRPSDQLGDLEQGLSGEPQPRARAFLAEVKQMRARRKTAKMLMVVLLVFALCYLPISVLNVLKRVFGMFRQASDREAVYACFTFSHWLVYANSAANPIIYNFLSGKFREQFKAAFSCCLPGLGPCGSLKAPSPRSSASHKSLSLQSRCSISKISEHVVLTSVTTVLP
The experiment in a line: IPone accumulation assay, CHO cells expressing human OX1 receptor. Format: cell-based. Particulars: antagonism of orexin A (EC80) induced inositol phosphate turnover, read-out: fpKb average OX1 (converted). The protocol: as §1
IPone accumulation assay. A CHO cell line stably expressing either human OX1 or OX2 receptor was used with the IPone HTRF assay kit (CisBio: Part #62IPAPEJ) to measure receptor activation. The assay was optimised to measure the ability (potency; fpKb) of antagonists to reduce agonist (orexin A)-induced inositol phosphate turnover. Briefly, cells were plated onto half area 96-well white walled plates at a density of 12,500 cells/well. Sixteen hours post-plating cell growth media was replaced with antagonist concentration-response curve diluted in stimulation buffer (supplied with the kit). Cells were incubated in a humidified incubator (37° C.) for 30 min before an EC80 challenge concentration (˜20 nM (OX1) and 40 nM (OX2)) of orexin A (Tocris catalogue number 1455). After 30 min stimulation in a humidified incubator (37° C.) the assay was terminated by the addition of detection mixture as per manufacturer's instructions. The concentration of compound which reduced orexin-A stimulated turnover of inositol phosphates by 50% (IC50) was calculated by fitting to a four parameter sigmoidal dose response curve. The IC50 values were converted to fpKB values using the orexin A pEC50 value estimated on each plate as well as the challenge concentration interpolated from the orexin A control curve.

For experiment [4], the target named is T2, Human OX1 receptor. The experiment in a line: [3H]-radioligand binding assay, human OX1 receptor membranes.
Method: as §2, §3

Bounds are passed on as bounds.

For `COc1ccc(F)c(-n2nccn2)c1C(=O)N[C@H]1CCC[C@@H]1COc1ccc(F)cc1` [Example 16, 3-fluoro-N-[(1S,2S)-2-[(4-fluorophenoxy)methyl]cyclopentyl]-6-methoxy-2-(triazol-2-yl)benzamide], the Ki at Human OX2 receptor [1] was 1580 nM; at Human OX1 receptor [4] it was 12.6 nM. Moreover, the Kb is over 631 nM on Human OX2 receptor [2] and 20 nM at Human OX1 receptor [3].
